The results in this text go back to US20200288710A1, “SUBSTITUTED SULPHONAMIDES FOR CONTROLLING ANIMAL PESTS” (BAYER CROPSCIENCE AKTIENGESELLSCHAFT, priority 2016, published 2020).

Common to all, as to assay type: in vivo
The subject of assay [1] is Meloidogyne incognita. In words: Meloidogyne incognita test. The settings on record: 336 h, lettuce, after 14 days, read-out: nematicidal efficacy (formation of galls). The essentials:
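Active compound in acetone, diluted with water, added to sand-filled vessels with M. incognita eggs/larvae and lettuce seeds. After 14 days, efficacy scored by root gall formation: 100% = no galls, 0% = galls equal to untreated control.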

Assay [2] concerns Myzus persicae. In words: Myzus persicae spray test (Chinese cabbage leaf discs). The settings on record: foliar, 120 h, 500 g/ha, after 5-6 days, read-out: efficacy. The method in brief:
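Chinese cabbage leaf discs infested with all stages of green peach aphid were sprayed with compound formulated in acetone/DMF and emulsifier-containing water. Efficacy in % was scored after 5-6 days, with 100% meaning all aphids killed and 0% none killed.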

Assay [3] deals with Myzus persicae. In words: Myzus persicae oral test. The settings on record: 120 h, 20 ppm, oral uptake, after 5 days, read-out: efficacy. The essentials:
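Compound dissolved in acetone, diluted in water, then mixed 50:150 μl with IPL41 insect medium (33%+15% sugar). Mixed-population green peach aphids feed through a parafilm seal on the solution; mortality scored as % efficacy after 5 days (100% = all killed).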

The test system of assay [4] is Phaedon cochleariae. In words: Phaedon cochleariae spray test. The settings on record: foliar, 168 h, Chinese cabbage leaf discs, larvae, after 7 days, read-out: efficacy. The protocol: Phaedon cochleariae—Spray Test
To produce a suitable preparation of active compound, 1 part by weight of active compound is dissolved using the specified parts by weight of solvent and made up with water containing an emulsifier concentration of 1000 ppm until the desired concentration is attained. To produce further test concentrations, the formulation is diluted with emulsifier-containing water.
After 7 days, the efficacy in % is determined. 100% means that all the beetle larvae have been killed; 0% means that no beetle larvae have been killed.

On to `COc1ccc(Br)c(S(=O)(=O)NC(=O)c2cn(C)c(-c3ccccc3Cl)n2)c1` [Example 420], for which the pest or weed control at 20 ppm in assay [1] was 90%; in assay [3], 100%. The pest or weed control at 500 g/ha turned out to be 100% in assay [2] and 83% in assay [4].

Regarding `Cn1cc(C(=O)NS(=O)(=O)c2ccc(Br)cc2C(F)(F)F)nc1-c1c(F)cccc1F` [Example 449], the pest or weed control at 20 ppm in assay [1] and in assay [3] was 100% in each case. Also, the pest or weed control at 500 g/ha in assay [2] and in assay [4] was 100% throughout.

Turning to `Cc1cc(Cl)ccc1S(=O)(=O)NC(=O)c1cn(C)c(-c2c(F)cccc2F)n1` [Example 445], the pest or weed control at 20 ppm in assay [1] was found to be 100%; in assay [3], 90%. In addition, the pest or weed control at 500 g/ha in assay [2] and in assay [4] was 100% throughout.

Consider `Cc1ccccc1S(=O)(=O)NC(=O)c1cn(C)c(-c2sccc2Cl)n1` [Example 548], for which the pest or weed control at 20 ppm in assay [1] and in assay [3] was 90% each time. The pest or weed control at 500 g/ha in assay [2] stood at 90%; in assay [4], 83%.

Turning to `Cc1ccc(S(=O)(=O)NC(=O)c2cn(C)c(-c3c(F)cccc3F)n2)c(Cl)c1` [Example 450], the pest or weed control at 20 ppm in assay [1] was determined as 100%; in assay [3], 90%. Further, the pest or weed control at 500 g/ha in assay [2] and in assay [4] was 100% each time.

In the case of `CCc1cccc(F)c1S(=O)(=O)NC(=O)c1cn(C)c(-c2c(F)cccc2F)n1` [Example 338], the pest or weed control at 20 ppm in assay [1] and in assay [3] was 100% throughout. The results for the pest or weed control at 500 g/ha in assay [2] and in assay [4] were 90% and 100%, respectively.

Take `CSc1ccccc1S(=O)(=O)NC(=O)c1cn(C)c(-c2ccccc2Cl)n1` [Example 423]: the pest or weed control at 20 ppm in assay [1] is 90%; in assay [3], 100%. Moreover, the pest or weed control at 500 g/ha in assay [2] and in assay [4] was 100% each time.

As to `COc1ccc(C)c(S(=O)(=O)NC(=O)c2cn(C)c(-c3ccccc3Cl)n2)c1` [Example 424], the results for the pest or weed control at 20 ppm in assay [1] and in assay [3] were 90% and 100%, respectively. Further, the pest or weed control at 500 g/ha is 90% in assay [2] and 100% in assay [4].

With `Cn1cc(C(=O)NS(=O)(=O)c2ccccc2I)nc1-c1ccccc1Cl` [Example 428], the pest or weed control at 20 ppm in assay [1] was determined as 90%; in assay [3] it was 100%. Besides, the pest or weed control at 500 g/ha in assay [2] and in assay [4] was 100% throughout.

For `CCc1cccc(OC(F)F)c1S(=O)(=O)NC(=O)c1cn(C)c(-c2c(F)cccc2F)n1` [Example 339], the pest or weed control at 20 ppm in assay [1] and in assay [3] was 100% in each case. Further, the pest or weed control at 500 g/ha in assay [2] is 90%; in assay [4], 100%.

Turning to `Cc1ccc(C(F)(F)F)cc1S(=O)(=O)NC(=O)c1cn(C)c(-c2c(F)cccc2F)n1` [Example 399], the figures for the pest or weed control at 20 ppm in assay [1] and in assay [3] were 90% and 100%, respectively. The pest or weed control at 500 g/ha in assay [2] and in assay [4] was 100% in each case.

Take `Cn1cc(C(=O)NS(=O)(=O)c2cc(Br)ccc2Br)nc1-c1ccccc1Cl` [Example 429]: the pest or weed control at 20 ppm in assay [1] and in assay [3] was 100% each time. For the same compound, the pest or weed control at 500 g/ha stood at 90% in assay [2] and 100% in assay [4].

Consider `CCc1ccc(Cl)cc1S(=O)(=O)NC(=O)c1cn(C)c(-c2ccccc2Cl)n1` [Example 280], for which the pest or weed control at 20 ppm in assay [1] amounted to 90%; in assay [3], 100%. Further, the pest or weed control at 500 g/ha in assay [2] worked out at 90%; in assay [4] it was 100%.

Take `Cn1cc(C(=O)NS(=O)(=O)c2ccccc2Cl)nc1-c1c(F)cccc1Cl` [Example 106]: the pest or weed control at 20 ppm in assay [1] and in assay [3] was 100% throughout. Besides, the pest or weed control at 500 g/ha in assay [2] stood at 90%; in assay [4], 100%.

`COc1ccc(Cl)c(S(=O)(=O)NC(=O)c2cn(C)c(-c3ncccc3Cl)n2)c1` [Example 575]: the pest or weed control at 20 ppm in assay [1] worked out at 90%; in assay [3], 100%. For the same compound, the pest or weed control at 500 g/ha in assay [2] came out at 90%; in assay [4], 83%.

As to `Cc1cc(Br)ccc1S(=O)(=O)NC(=O)c1cn(C)c(-c2ccccc2Cl)n1` [Example 282], the pest or weed control at 20 ppm in assay [1] and in assay [3] was 100% each time. Besides, the figures for the pest or weed control at 500 g/ha in assay [2] and in assay [4] were 90% and 100%, respectively.

For `Cc1c(S(=O)(=O)NC(=O)c2cn(C)c(-c3c(F)cccc3F)n2)sc2ccc(Cl)cc12` [Example 324], the pest or weed control at 20 ppm in assay [1] came to 90%; in assay [3] it was 100%. Moreover, the pest or weed control at 500 g/ha in assay [2] and in assay [4] was 100% in each case.

With `Cc1c(Cl)cccc1S(=O)(=O)NC(=O)c1cn(C)c(-c2c(F)cccc2F)n1` [Example 316], the pest or weed control at 20 ppm in assay [1] amounted to 90%; in assay [3], 100%. Besides, the pest or weed control at 500 g/ha in assay [2] amounted to 90%; in assay [4] it was 100%.

As for `CCc1ccc(Cl)cc1S(=O)(=O)NC(=O)c1cn(C)c(-c2c(F)cccc2F)n1` [Example 279], the pest or weed control at 20 ppm in assay [1] and in assay [3] was 100% each time. Besides, the pest or weed control at 500 g/ha in assay [2] is 90%; in assay [4], 100%.

On to `CSc1cccc(Cl)c1S(=O)(=O)NC(=O)c1cn(C)c(-c2c(F)cccc2F)n1` [Example 385], for which the pest or weed control at 20 ppm in assay [1] amounted to 90%; in assay [3] it was 100%. For the same compound, the pest or weed control at 500 g/ha in assay [2] and in assay [4] was 100% in each case.

On to `CCc1ccc(Cl)cc1S(=O)(=O)NC(=O)c1cn(C)c(-c2ncccc2Cl)n1` [Example 583], for which the results for the pest or weed control at 20 ppm in assay [1] and in assay [3] were 90% and 100%, respectively. For the same compound, the pest or weed control at 500 g/ha in assay [2] and in assay [4] was 100% each time.

With `Cc1cccc(C(F)(F)F)c1S(=O)(=O)NC(=O)c1cn(C)c(-c2c(F)cccc2F)n1` [Example 369], the figures for the pest or weed control at 20 ppm in assay [1] and in assay [3] were 90% and 100%, respectively. Further, the pest or weed control at 500 g/ha in assay [2] and in assay [4] was 100% in each case.

For `Cc1ccc(Br)cc1S(=O)(=O)NC(=O)c1cn(C)c(-c2c(F)cccc2F)n1` [Example 398], the pest or weed control at 20 ppm in assay [1] came to 90%; in assay [3], 100%. The pest or weed control at 500 g/ha in assay [2] turned out to be 90%; in assay [4] it was 100%.

In the case of `Cn1cc(C(=O)NS(=O)(=O)c2c(Br)cccc2C(F)(F)F)nc1-c1c(F)cccc1F` [Example 373], the results for the pest or weed control at 20 ppm in assay [1] and in assay [3] were 90% and 100%, respectively. In addition, the pest or weed control at 500 g/ha in assay [2] and in assay [4] was 100% in each case.

With `Cc1ccc(F)cc1S(=O)(=O)NC(=O)c1cn(C)c(-c2cccc(Cl)c2Cl)n1` [Example 319], the pest or weed control at 20 ppm in assay [1] turned out to be 90%; in assay [3], 100%. Moreover, the pest or weed control at 500 g/ha in assay [2] and in assay [4] was 100% in each case.

Turning to `Cc1ccccc1S(=O)(=O)NC(=O)c1cn(C)c(-c2ncccc2Br)n1` [Example 579], the pest or weed control at 20 ppm in assay [1] worked out at 90%; in assay [3], 100%. The pest or weed control at 500 g/ha in assay [2] and in assay [4] was 100% each time.

For the compound `Cn1cc(C(=O)NS(=O)(=O)c2cccc(Cl)c2I)nc1-c1c(F)cccc1F` [Example 313], the pest or weed control at 20 ppm in assay [1] came out at 90%; in assay [3], 100%. Also, the figures for the pest or weed control at 500 g/ha in assay [2] and in assay [4] were 90% and 100%, respectively.

Turning to `Cc1cccc(F)c1S(=O)(=O)NC(=O)c1cn(C)c(-c2c(F)cccc2F)n1` [Example 363], the pest or weed control at 20 ppm in assay [1] is 90%; in assay [3], 100%. In addition, the pest or weed control at 500 g/ha in assay [2] and in assay [4] was 100% each time.

Consider `Cc1ccc(Cl)c(S(=O)(=O)NC(=O)c2cn(C)c(-c3c(F)cccc3F)n2)c1Cl` [Example 434], for which the pest or weed control at 20 ppm in assay [1] and in assay [3] was 100% throughout. Moreover, the pest or weed control at 500 g/ha in assay [2] and in assay [4] was 100% throughout.

For the compound `Cn1cc(C(=O)NS(=O)(=O)c2ccccc2C(F)(F)F)nc1-c1ccccc1Cl` [Example 58], the figures for the pest or weed control at 20 ppm in assay [1] and in assay [3] were 90% and 100%, respectively. For the same compound, the pest or weed control at 500 g/ha in assay [2] stood at 90%; in assay [4] it was 100%.
